# How the values were obtained:
# [1] = Solubility (physicochemical properties)
# [2] = test system: Enterococcus faecalis IID682; experiment: In vitro antibacterial activity (MIC), agar plate dilution method using Müller-Hinton medium; assay type: cell-based
# Procedure: (§1) In vitro antibacterial activity (MIC) The antibacterial spectrum of the macrolide compound of the present invention was determined by the agar plate dilution method using Müller-Hinton medium which is commonly used for this purpose.
# [3] = test system: Pseudomonas aeruginosa IID5142; experiment: as above; assay type: cell-based
# Procedure: as §1
# [4] = test system: Proteus vulgalis OX-19; experiment: as above; assay type: cell-based
# Procedure: as §1
# [5] = test system: Streptococcus pneumoniae IID552; experiment: as above; assay type: cell-based
# Procedure: as §1
# [6] = test system: Escherichia coli 0-1; experiment: as above; assay type: cell-based; conditions: 01
# Procedure: as §1
# [7] = test system: Staphylococcus aureus FDA 209P; experiment: as above; assay type: cell-based; conditions: FDA209P
# Procedure: as §1
# [8] = test system: Streptococcus pyogenes Cook; experiment: as above; assay type: cell-based
# Procedure: as §1
# [9] = test system: Klebsiella pneumoniae ATTCC10031; experiment: as above; assay type: cell-based
# Procedure: as §1
# [10] = test system: Serratia marcescens IID620; experiment: as above; assay type: cell-based
# Procedure: as §1
# [11] = test system: Staphylococcus epidermidis IID866; experiment: as above; assay type: cell-based
# Procedure: as §1
# [12] = test system: Staphylococcus aureus FDA 209P JC-1; experiment: as above; assay type: cell-based; conditions: FDA209P
# Procedure: as §1
# [13] = in methanol, ethanol, acetone, ethyl acetate, benzene, toluene and chloroform
SMILES,"Solubility [1, 13]",Solubility ([1]; in water and hexane),MIC [2] [µg/mL],MIC [3] [µg/mL],MIC [4] [µg/mL],MIC [5] [µg/mL],MIC [6] [µg/mL],MIC [7] [µg/mL],MIC [8] [µg/mL],MIC [9] [µg/mL],MIC [10] [µg/mL],MIC [11] [µg/mL],MIC [12] [µg/mL]
COC1C(OCC(C)C2OC(=O)C(C)C(OC3CC(C)(O)C(O)C(C)O3)C(C)C(OC3OC(C)CC(=O)C3O)C(C)CC(C)(O)C(=O)C(C)C(OC(=O)CC(C)C)C2C)OC(C)C(O)C1OC (stereo not drawn) [YL-02107Q substance],Soluble,only sparingly soluble,1.56,> 100,> 100,3.13,> 100,0.78,0.39,> 100,> 100,0.78,–
COC1C(OCC(C)C2OC(=O)C(C)C(OC3CC(O)C(O)C(C)O3)C(C)C(OC3OC(C)CC(=O)C3O)C(C)CC(C)(O)C(=O)C(C)C(OC(=O)CC(C)C)C2C)OC(C)C(O)C1OC (stereo not drawn) [YL-02107Q-B substance],Soluble,only sparingly soluble,25,> 50,> 50,50,> 50,–,0.78,> 50,> 50,3.13,3.13
COC1C(OCC(C)C2OC(=O)C(C)C(OC3CC(C)(O)C(O)C(C)O3)C(C)C(OC3OC(C)CC(=O)C3O)C(C)CC(C)(O)C(=O)C(C)C(O)C2C)OC(C)C(O)C1OC (stereo not drawn) [YL-02107Q-D substance],Soluble,only sparingly soluble,> 50,> 50,> 50,> 50,> 50,–,0.78,> 50,> 50,1.56,3.13
